In patent EP0470144B1, “BETA-HYDROXAMATE D-ASPARTIC ACID FOR TREATMENT OF VIRAL INFECTIONS AND TUMOURS” (priority 1989, dated 1990):
“And” between values parts separate entries of the source, which are not always exact repeats. Equal values may be shown once.

Legend:
[1] = system: lymphome L5178Y; assay: Antitumour activity in the L5178Y lymphoma model, survival; format: in vivo; settings: days 1,2,3,4,5; for Nombre d'animaux survivants: at 120 days
Excerpt: L'activité antitumorale du DAH a été aussi étudiée sur deux autres modèles murins : le lymphome L5178Y et la leucémie P388.
Les cellules de lymphome murin (L5178Y) sont maintenues par passages intrapéritonéaux successifs chez la souris DBA/2 et injectées, pour les essais, à la dose de […] par souris.

[2] = LD50 comparison of DAH and LAH; settings: in vivo
[3] = Acute parenteral toxicity in mice (lethal doses); format: in vivo, souris B6D2F1; settings: evaluated at 24 hours and 14 days
Excerpt: La toxicité du DAH par voie parentérale a été évaluée chez la souris B6D2F1 âgée de six semaines et pesant entre 20 et 22 g. Pour chaque niveau de dose, on a utilisé treize mâles et treize femelles avec une période d'observation de 14 jours. La dose léthale (DL) a été évaluée 24 heures après l'injection de DAH puis à 14 jours. Dans ces conditions, on a pu montrer que la DL 10 (10 % de mortalité) était observée pour des posologies de 8,5-9 g/kg, la DL 50 correspondait à 11-12 g/kg et la DL 90 à 14-15 g/kg. Il n'a pas été observé de différence significative de mortalité à 24 heures et à 14 jours pour un niveau de dose donné.

[4] = Stability of DAH versus pH and temperature over one month (colorimetric assay of the hydroxamate function); format: physicochemical; settings: for Pourcentage de dégradation du DAH sur une période de 30 jours: 30 days
Description: La fonction hydroxamate du DAH est mise en évidence par un complexe Fe3+-hydroxamate qui donne une coloration rouge-violet, quantifiée par méthode colorimétrique à 550 nm, à l'aide d'un spectrophotomètre de type Beckman DU 70.
La stabilité du DAH en fonction du pH et de la température a été déterminée sur une durée d'un mois par dosage colorimétrique spécifique de la fonction hydroxamate. Les résultats du tableau ci-après montrent que dans l'eau le DAH est stable jusqu'à une température de 50°C. Une dégradation significative du produit n'est constatée que dans des conditions extrêmes de pH, comme l'illustre le Tableau 1 ci-après. Tableau 1

[5] = system: leucémie 1210, lymphome RBL5 et mélanome B16; settings: 600 mg/kg per day for 5 days; cited from earlier work
[6] = system: lymphocytes infectés par le virus du SIDA; assay: Growth and cell mortality of HIV-infected lymphocytes; format: cell-based; settings: 0,5-2 mM DAH; compared with uninfected lymphocytes
Excerpt: (§1) Cette inhibition est dose-dépendante. Les essais ont d'abord porté sur des lymphoytes de donneurs sains (Figures 1 et 2). On a pu mettre en évidence cette activité sur deux modèles de réplication du HIV : a) lymphocytes normaux infectés par le virus purifié et b) coculture des lymphocytes des malades du SIDA et de lymphocytes normaux. On a mesuré l'activité transcriptase inverse pendant 22 jours dans le surnageant de cultures cellulaires comme critère de prolifération virale. Le traitement avec le DAH a duré 72 heures de J₀ à J₃ de la manipulation (Figures 3, 4 et 5). […] Par contre, le DAH s'est montré plus toxique vis-à-vis des lymphocytes infectés par le virus du SIDA (Figures 6 et 7).
Effet du DAH sur le taux de croissance de lymphocytes infectés.
(●) absence de DAH (o) concentration en DAH = 0,5 mM (□) concentration en DAH = 1 mM (△) concentration en DAH = 1,5 mM (◇) concentration en DAH = 2 mM • . En abscisses : temps de culture (en jours) • . En ordonnées : taux de croissance.
Effet du DAH sur la mortalité cellulaire de lymphocytes infectés.
(●) absence de DAH (o) concentration en DAH = 0,5 mM (□) concentration en DAH = 1 mM (△) concentration en DAH = 1,5 mM (◇) concentration en DAH = 2 mM • . En abscisses : temps de culture (en jours) • . En ordonnées : proportion de cellules mortes (en %).

[7] = system: leucémie L1210; assay: Antitumour activity in the L1210 leukaemia model, survival; format: in vivo, souris B6D2F1/J; settings: for Nombre d'animaux survivants: at 30 days
Excerpt: L'activité antitumorale du DAH et du LAH a été étudiée sur le modèle de leucémie L1210. Les cellules leucémiques L1210 sont maintenues par passages intrapéritonéaux dans la souris B6D2F1/J mâle. […] La durée d'observation est de 30 jours.

[8] = system: lymphocytes de donneurs sains; assay: Growth and cell mortality of uninfected lymphocytes from healthy donors; format: cell-based; settings: 0,5-2 mM DAH
Excerpt: as §1
Effet du DAH sur le taux de croissance de lymphocytes de donneurs sains.
(●) absence de DAH (o) concentration en DAH = 0,5 mM (□) concentration en DAH = 1 mM (△) concentration en DAH = 1,5 mM (◇) concentration en DAH = 2 mM • . En abscisses : temps de culture (en jours) • . En ordonnées : taux de croissance
Effet du DAH sur la mortalité cellulaire de lymphocytes sains.
(●) absence de DAH (o) concentration en DAH = 0,5 mM (□) concentration en DAH = 1 mM (△) concentration en DAH = 1,5 mM (◇) concentration en DAH = 2 mM • . En abscisses : temps de culture (en jours) • . En ordonnées : proportion de cellules mortes (en %)

SMILES: N[C@@H](CC(=O)NO)C(=O)O [DAH, D-acide aspartique β-hydroxamate]
- T/Cx100 ([1]; 1 g/kg x 3/j): 576%
- Nombre d'animaux survivants ([1]; 1 g/kg x 3/j): 5/5
- T/Cx100 ([1]; 1 g/kg x 4/j): 576%
- Nombre d'animaux survivants ([1]; 1 g/kg x 4/j): 5/5
- DL 50 % [2]: 10 g/kg
- DL 10 (10 % de mortalité) [3]: 8,5-9 g/kg and 8,5 g/kg
- DL 50 [3]: 11 to 12 g/kg
- DL 90 [3]: 14 to 15 g/kg
- Pourcentage de dégradation du DAH sur une période de 30 jours ([4]; HCl 0,1 N, + 4 °C): 42%
- Pourcentage de dégradation du DAH sur une période de 30 jours ([4]; HCl 0,1 N, + 25 °C): 78%
- Pourcentage de dégradation du DAH sur une période de 30 jours ([4]; HCl 0,1 N, + 50 °C): 100%
- Pourcentage de dégradation du DAH sur une période de 30 jours ([4]; H₂O, + 4 °C): 0%
- Pourcentage de dégradation du DAH sur une période de 30 jours ([4]; H₂O, + 25 °C): 0%
- Pourcentage de dégradation du DAH sur une période de 30 jours ([4]; H₂O, + 50 °C): 0%
- Pourcentage de dégradation du DAH sur une période de 30 jours ([4]; NaOH 0,1 N, + 4 °C): 4%
- Pourcentage de dégradation du DAH sur une période de 30 jours ([4]; NaOH 0,1 N, + 25 °C): 36%
- Pourcentage de dégradation du DAH sur une période de 30 jours ([4]; NaOH 0,1 N, + 50 °C): 100%
- Stabilité du DAH ([4]; in water, up to 50°C, one month): stable
- activité in vivo sur trois modèles tumoraux murins [5]: aucune activité
- toxicité vis-à-vis des lymphocytes infectés par le virus du SIDA [6]: plus toxique
- T/Cx100 ([7]; 0,5 g/kg x4/j, days 1,2,3): 113%
- Nombre d'animaux survivants ([7]; 0,5 g/kg x4/j, days 1,2,3): 0/5
- T/Cx100 ([7]; 1,5 g/kg x4/j, days 1,2,3): 276%
- T/Cx100 ([7]; 1,5 g/kg x4/j, days 1,2,3,4): 347%
- Nombre d'animaux survivants ([7]; 1,5 g/kg x4/j, days 1,2,3,4): 3/5
- Nombre d'animaux survivants ([7]; 1,5 g/kg x4/j, days 1,2,3): 0/5
- T/Cx100 ([7]; 1 g/kg x3/j, days 1-10): 347%
- Nombre d'animaux survivants ([7]; 1 g/kg x3/j, days 1-10): 3/5
- T/Cx100 ([7]; 1 g/kg x4/j, days 1,2,3): 171%
- Nombre d'animaux survivants ([7]; 1 g/kg x4/j, days 1,2,3): 0/5
- survie des animaux traités ([7]; 1 g/kg, 4 times a day for 3 days): prolongation très significative de la survie
- activité antitumorale ([7]; dose of 1 g/kg or more, 3 or 4 times a day): activité antitumorale significative
- toxicité pour les lymphocytes non infectés par le virus HIV [8]: n'est pas toxique
